The record followed here is patent US20100196510A1, “COMPOSITION AND TREATMENT” (priority 2007, published 2010).

The subject of assay [1] is rat sensory neurones (dorsal root ganglia). In words: Number of neuronal cell bodies per field (anti MAP-2) in cisplatin-induced toxicity model. In kind it is cell-based. Conditions: for number of cell bodies per field, Average / number of cell bodies, % Control without cisplatin: 10 ng/ml + cisplatin 3 μg/ml; for effect on cisplatin-induced loss of cell bodies (in words): 10 ng/ml, cisplatin 3 μg/ml. The protocol:
(§1) The low molecular weight glycosaminoglycans are referred to in the examples as 2400 D.
(§2) 1. neurone cell bodies stained with an anti MAP 2 antibody (microtubule associated protein, and 2. neurite network density stained with an anti β-Tubulin antibody
Briefly, a female rat (15 days gestation) was killed by cervical dislocation (Rats Wistar; Janvier, Le Genest-St-Isle, France) and the foetuses removed from the uterus. […] The DRG were recovered and dissociated by trypsinisation for 20 min at 37° C. […] The cell suspension was triturated with a 10 ml pipette and centrifuged at 350×g for 10 min at room temperature. The pellet of dissociated cells was then resuspended in defined culture medium.
Viable cells were counted in a Neubauer cytometer using the trypan blue exclusion test (Sigma) and seeded at a density of 30 000 cells/well in 96 well-plates (Nunc).
(§3) Six wells per condition were carried out to assess neuronal survival. After 48 hours and 72 hours of incubation, the neuronal cells were fixed for 5 minutes in an ethanol/acetic acid solution (95%/5%) at −20° C. and rinsed 3 times in PBS.
(§4) Cell bodies of sensory neurones were labelled by monoclonal anti MAP-2 antibody (Sigma M4403, see photograph 1A) and the neurite of sensory neurones were labelled by monoclonal β-Tubulin antibody (Sigma T8660). These antibodies were diluted at 1:400 in incubation solution (PBS with 5% of FCS and 0.1% of saponin, Sigma S-7900). These antibodies specifically label neurone cell bodies and neurites, respectively.
Cell nuclei were stained with a fluorescent marker (Hoechst staining solution, SIGMA H6024, 1 μg/ml in incubation solution during 1 hour).
(§5) For each condition, 2 pictures per well (12 pictures per condition) were taken using In Cell Analyzer 1000 (Amersham Biosciences) controlled by the computer software In Cell Analyzer 1000 3.2. For the MAP-2 labelling, the magnification was ×10, for the β-Tubulin labelling, the magnification was ×20. For each labelling, all the images were taken in the same conditions.
(§6) Analysis of the number of cell bodies labelled with anti MAP-2 antibodies, and total length of neurites labelled with anti β-Tubulin antibodies, were carried out using In Cell Analyzer 1000 3.2.Workstation software. The results were expressed in percentage compared to the vehicle. The comparisons of each group were carried out using the unpaired T test.

Assay [2] shares this test system. In words: Neurite length of sensory neurones (anti β-Tubulin) in cisplatin-induced toxicity model. It counts as cell-based. The note with it: for Mean neurite Length / neurite length, % Control without cisplatin: 10 ng/ml + cisplatin 3 μg/ml; for effect on cisplatin-induced loss of neurites (in words): 10 ng/ml, cisplatin 3 μg/ml. The protocol:
as §1, §2
Rat sensory neurones were prepared according to the method described by Hall et al 1997(3). Briefly, a female rat (15 days gestation) was killed by cervical dislocation (Rats Wistar; Janvier, Le Genest-St-Isle, France) and the foetuses removed from the uterus. Their spinal cords with the dorsal root ganglia (DRG) were removed and placed in ice-cold medium of Leibovitz (L15, Fisher 11415-049) containing Penicillin 50 Ul/ml—Streptomycin 50 μg/ml (PS, 1%) and bovine serum albumin (BSA 1%, Sigma A6003). The DRG were recovered and dissociated by trypsinisation for 20 min at 37° C. (trypsin EDTA 10×, 10%, Fisher 15400054) diluted in PBS without calcium and magnesium (Fisher 2007-03). […] The cell suspension was triturated with a 10 ml pipette and centrifuged at 350×g for 10 min at room temperature. The pellet of dissociated cells was then resuspended in defined culture medium.
Viable cells were counted in a Neubauer cytometer using the trypan blue exclusion test (Sigma) and seeded at a density of 30 000 cells/well in 96 well-plates (Nunc). Wells were pre-coated with poly-L-lysine (10 μg/ml, Sigma P2636) in ultra pure sterile water (Merck Eurolab 60759.01).
Cells were allowed to adhere for 2 h and maintained in a humidified incubator at 37° C. in 5% CO2/95% air atmosphere.
as §3, §4
After 2 hours of incubation, the cells were washed in PBS and incubated with Alexa Fluor 488 goat anti mouse IgG (Molecular Probes A11001) diluted at 1:300 in incubation solution to reveal the MAP-2 and the β-Tubulin antibodies. Cell nuclei were stained with a fluorescent marker (Hoechst staining solution, SIGMA H6024, 1 μg/ml in incubation solution during 1 hour).
as §5, §6

With “NGF: Nerve Growth Factor, a specific growth factor for sensory neurons; reference compound”, in assay [1] (48 hours), the “number of cell bodies per field, Average” value is on record as 58.33; the “number of cell bodies, % Control without cisplatin” value is recorded as 96%; the “effect on cisplatin-induced loss of cell bodies (in words)” value is recorded as “almost completely prevented cisplatin-induced loss of cell bodies”. Further, in assay [1] (72 hours), the “number of cell bodies per field, Average” value is on record as 54.92 and the “number of cell bodies, % Control without cisplatin” value is 102%. Further, the “effect on cisplatin-induced loss of cell bodies (in words)” value in assay [1] (72 hours section (text prints 48 hours)) is “completely prevented cisplatin-induced loss of cell bodies”. In addition, in assay [2] (48 hours), the “Mean neurite Length” value was determined as 6362.44 μm; the “neurite length, % Control without cisplatin” value is reported as 117%; the “effect on cisplatin-induced loss of neurites (in words)” value is listed as “prevented cisplatin-induced loss of neurites”. In addition, in assay [2] (72 hours), the “Mean neurite Length” value was found to be 6000.30 μm; the “neurite length, % Control without cisplatin” value amounted to 113%; the “effect on cisplatin-induced loss of neurites (in words)” value was “prevented cisplatin-induced loss of neurites”.
